PMC13192270, “RhlR quorum-sensing receptor ligand sensitivity regulates the differential expression of phenazine genes in Pseudomonas aeruginosa” (Journal of Bacteriology, 2026)

System: ΔrhlI strain expressing RhlR T58L
Assay: RNA-seq gene expression
Format: cell-based, Pseudomonas aeruginosa
Design: opmD Expression value / mexI Expression value / mexH Expression value / mexG Expression value / lasB Expression value / rhlA Expression value / rhlB Expression value / rhlR Expression value / lecB Expression value / fhp Expression value / chiC Expression value / hcnA Expression value / mvfR Expression value / katB Expression value / norC Expression value / norB Expression value / katA Expression value: unit not given here
Conditions: 2 µM C4HSL
Experimental: To determine the effects of hypo- and hypersensitivity to C4HSL on RhlR-dependent transcription activation in P. aeruginosa, we performed RNA-seq on ΔrhlI strains expressing WT RhlR, RhlR T58L, and RhlR A44M in the presence of 2 µM C4HSL. We chose this approach to better control the levels of C4HSL across samples. All gene expression analyses were done relative to a ΔrhlI strain without exogenous supplementation of AHL. Thus, we examined the total increase in C4HSL-dependent gene regulation. We observed increased rhlA RNA levels in strains expressing WT RhlR and the RhlR T58L variant compared to ΔrhlI without C4HSL or a strain expressing the RhlR A44M variant (Table 2; Table S1). […] To corroborate our RNA-seq data, we built an rhlA promoter fusion to mScarlet and assayed reporter levels in the same genetic backgrounds as our transcriptomic experiment (Fig. S7D). Strains expressing hypersensitive RhlR variants produced similar levels of fluorescent signal relative to the WT strain, while a strain expressing a hyposensitive RhlR variant had diminished levels of fluorescent reporter (Fig. S7D).
A total of […] of overnight cultures was back diluted 1:100 in 20 mL of fresh LB media and incubated for 5 h at 37°C with shaking. Cells were harvested by centrifugation, and pellets were frozen until RNA extraction. RNA was extracted using the Invitrogen PureLink RNA Mini Kit. Pellets were resuspended in 100 µL lysozyme solution containing 10 mM Tris-HCl pH 8.0, 0.1 mM EDTA, and 1 mg/mL lysozyme. Five microliters of 1% SDS was added, and the solution was mixed with a vortex and incubated at room temperature for 5 min. A total of 350 µL lysis buffer (Invitrogen) was added with 10 µL 2-mercaptoethanol for each 1 mL of lysis buffer and vortexed. Cells were lysed by bead beating (BioSpec 0.1 MM Zirconia/Silica Beads) for two rounds of 50 s. Lysed cells were transferred to fresh microcentrifuge tubes with 250 µL of 100% ethanol and mixed with a vortex. Samples were spun in spin cartridges (Invitrogen) at 12,000 × g for 15 s at room temperature, and the flow-through was discarded. A total of 700 µL Wash Buffer I (Invitrogen) was added and spun at 12,000 × g for 15 s at room temperature, and the flow-through was discarded. A total of 500 µL Wash Buffer II (Invitrogen) with ethanol was added and centrifuged for 12,000 × g for 15 s at room temperature; the flow-through was discarded, and RNA samples were washed again. Cells were spun at 12,000 × g for 1 min at room temperature to dry the membrane with the bound RNA. A total of 50 µL RNAse-free water was added to the center of the spin cartridge, incubated at room temperature for 1 min, and centrifuged for 2 min at ≥12,000 × g at room temperature. Extracted RNA was then frozen at −80°C until further use.
Bulk RNA was sent to SeqCenter (Pittsburgh, PA) where it was processed for paired-end Illumina sequencing via rRNA depletion using Ribo-Zero Plus (Illumina). Fastq files generated by SeqCenter were processed using Rockhopper with default settings ([61][–][63]). Briefly, fastq files were aligned to the genome of Pseudomonas aeruginosa UCBPP-PA14. The reads were subsequently normalized using upper-quartile normalization, and transcript abundance was determined by reads per kilobase per million mapped reads. Differential gene expression analysis was conducted using a negative binomial distribution model, outputting a P-value for each transcript. The P-values were then corrected for false discovery using the Benjamini-Hochberg procedure, resulting in the q-values reported here (Table S2). SignalMap v2.0 (NimbleGen Systems) was used to visualize read counts for phzABCDEFG1/2, phzH, phzM, and phzS (Fig. 5). Aligned sequences generated in Rockhopper were converted to GFF files, and genes of interest were isolated into unique GFF files ([37]).

Q: With CCCC(=O)N[C@H]1CCOC1=O [C4HSL, N-butyryl-L-homoserine lactone] as the molecule, how does the “chiC Expression value” read?
A: The value was 3,615,357.

Q: And the “fhp Expression value”?
A: The value was 396,561.5.

Q: What about the “hcnA Expression value” of the same molecule?
A: Its value is 9,523.

Q: And the “katA Expression value”?
A: Its value is 12,151,161.

Q: What about the “katB Expression value” of the same molecule?
A: The value was 2,895,168.

Q: What about the “lasB Expression value” of the same molecule?
A: Its value is 19,328,123.5.

Q: What about the “lecB Expression value” of the same molecule?
A: Its value is 250,651.

Q: And the “mexG Expression value”?
A: The value was 332,571.5.

Q: And the “mexH Expression value”?
A: Its value is 723,774.5.

Q: And the “mexI Expression value”?
A: The value was 830,527.5.

Q: And the “mvfR Expression value”?
A: The value was 267,969.

Q: What about the “norB Expression value” of the same molecule?
A: Its value is 7,897,306.

Q: What about the “norC Expression value” of the same molecule?
A: Its value is 3,026,578.5.

Q: What about the “opmD Expression value” of the same molecule?
A: The value was 525,347.

Q: And the “phnA Expression value”?
A: The value was 1,406,882.5.

Q: What about the “phnB Expression value” of the same molecule?
A: Its value is 434,424.

Q: And the “phzA1 Expression value”?
A: Its value is 6,068.

Q: And the “phzA2 Expression value”?
A: The value was 61,057.5.

Q: And the “phzB1 Expression value”?
A: The value was 73,793.

Q: What about the “phzB2 Expression value” of the same molecule?
A: The value was 1,991,168.

Q: What about the “phzC1 Expression value” of the same molecule?
A: The value was 272,395.5.

Q: What about the “phzC2 Expression value” of the same molecule?
A: The value was 1,969,682.5.

Q: What about the “phzD1 Expression value” of the same molecule?
A: The value was 1,058,250.

Q: And the “phzD2 Expression value”?
A: Its value is 977,075.5.

Q: What about the “phzE1 Expression value” of the same molecule?
A: The value was 2,058,712.5.

Q: And the “phzE2 Expression value”?
A: Its value is 1,532,300.5.

Q: And the “phzF1 Expression value”?
A: Its value is 1,047,752.5.

Q: And the “phzF2 Expression value”?
A: The value was 1,048,278.5.

Q: And the “phzG1 Expression value”?
A: The value was 312,421.5.

Q: And the “phzG2 Expression value”?
A: The value was 1,165,545.

Q: And the “phzM Expression value”?
A: The value was 79,302.5.

Q: What about the “phzS Expression value” of the same molecule?
A: Its value is 377,065.5.

Q: What about the “pqsA Expression value” of the same molecule?
A: Its value is 870,485.5.

Q: What about the “pqsB Expression value” of the same molecule?
A: Its value is 2,171,803.5.

Q: What about the “pqsC Expression value” of the same molecule?
A: Its value is 2,097,049.

Q: And the “pqsD Expression value”?
A: The value was 2,742,260.

Q: What about the “pqsE Expression value” of the same molecule?
A: The value was 1,483,216.5.

Q: And the “rhlA Expression value”?
A: Its value is 879,447.5.

Q: And the “rhlB Expression value”?
A: Its value is 741,717.

Q: What about the “rhlR Expression value” of the same molecule?
A: The value was 906,213.

Q: And the “chiC Log2fold change” value (vs ΔrhlI without AHL)?
A: Its value is 4.706.

Q: What about the “fhp Log2fold change” value (vs ΔrhlI without AHL) of the same molecule?
A: The value was 5.681.

Q: And the “hcnA Log2fold change” value (vs ΔrhlI without AHL)?
A: The value was −1.753.

Q: What about the “katA Log2fold change” value (vs ΔrhlI without AHL) of the same molecule?
A: The value was 1.97.

Q: And the “katB Log2fold change” value (vs ΔrhlI without AHL)?
A: Its value is 7.877.

Q: And the “lasB Log2fold change” value (vs ΔrhlI without AHL)?
A: The value was 2.595.

Q: What about the “lecB Log2fold change” value (vs ΔrhlI without AHL) of the same molecule?
A: The value was −0.51.

Q: What about the “mexG Log2fold change” value (vs ΔrhlI without AHL) of the same molecule?
A: Its value is 6.357.

Q: What about the “mexH Log2fold change” value (vs ΔrhlI without AHL) of the same molecule?
A: The value was 6.234.

Q: And the “mexI Log2fold change” value (vs ΔrhlI without AHL)?
A: Its value is 5.568.

Q: What about the “mvfR Log2fold change” value (vs ΔrhlI without AHL) of the same molecule?
A: Its value is 0.187.

Q: And the “norB Log2fold change” value (vs ΔrhlI without AHL)?
A: The value was 7.599.

Q: And the “norC Log2fold change” value (vs ΔrhlI without AHL)?
A: Its value is 7.238.

Q: And the “opmD Log2fold change” value (vs ΔrhlI without AHL)?
A: Its value is 6.207.

Q: What about the “phnA Log2fold change” value (vs ΔrhlI without AHL) of the same molecule?
A: The value was −0.7187.

Q: What about the “phnB Log2fold change” value (vs ΔrhlI without AHL) of the same molecule?
A: The value was −0.4007.

Q: And the “phzA1 Log2fold change” value (vs ΔrhlI without AHL)?
A: The value was −2.305.

Q: What about the “phzA2 Log2fold change” value (vs ΔrhlI without AHL) of the same molecule?
A: The value was 2.537.

Q: And the “phzB1 Log2fold change” value (vs ΔrhlI without AHL)?
A: Its value is −2.194.

Q: And the “phzB2 Log2fold change” value (vs ΔrhlI without AHL)?
A: Its value is 3.237.

Q: And the “phzC1 Log2fold change” value (vs ΔrhlI without AHL)?
A: Its value is 0.3098.

Q: What about the “phzC2 Log2fold change” value (vs ΔrhlI without AHL) of the same molecule?
A: Its value is 3.428.

Q: And the “phzD1 Log2fold change” value (vs ΔrhlI without AHL)?
A: The value was 2.278.

Q: What about the “phzD2 Log2fold change” value (vs ΔrhlI without AHL) of the same molecule?
A: Its value is 2.374.

Q: What about the “phzE1 Log2fold change” value (vs ΔrhlI without AHL) of the same molecule?
A: Its value is 2.344.

Q: And the “phzE2 Log2fold change” value (vs ΔrhlI without AHL)?
A: Its value is 2.345.

Q: And the “phzF1 Log2fold change” value (vs ΔrhlI without AHL)?
A: Its value is 2.194.

Q: And the “phzF2 Log2fold change” value (vs ΔrhlI without AHL)?
A: Its value is 2.188.

Q: And the “phzG1 Log2fold change” value (vs ΔrhlI without AHL)?
A: Its value is 0.6164.

Q: And the “phzG2 Log2fold change” value (vs ΔrhlI without AHL)?
A: Its value is 3.389.

Q: What about the “phzM Log2fold change” value (vs ΔrhlI without AHL) of the same molecule?
A: The value was −2.128.

Q: And the “phzS Log2fold change” value (vs ΔrhlI without AHL)?
A: Its value is −0.989.

Q: And the “pqsA Log2fold change” value (vs ΔrhlI without AHL)?
A: Its value is −1.603.

Q: And the “pqsB Log2fold change” value (vs ΔrhlI without AHL)?
A: The value was −0.7949.

Q: What about the “pqsC Log2fold change” value (vs ΔrhlI without AHL) of the same molecule?
A: The value was −0.8699.

Q: And the “pqsD Log2fold change” value (vs ΔrhlI without AHL)?
A: The value was −0.6876.

Q: And the “pqsE Log2fold change” value (vs ΔrhlI without AHL)?
A: The value was −0.7631.

Q: What about the “rhlA Log2fold change” value (vs ΔrhlI without AHL) of the same molecule?
A: The value was 1.8.

Q: And the “rhlB Log2fold change” value (vs ΔrhlI without AHL)?
A: The value was 2.488.

Q: What about the “rhlR Log2fold change” value (vs ΔrhlI without AHL) of the same molecule?
A: The value was 0.5062.
